Reference: patent publication US10821115B2, “Compounds that inhibit Mcl-1 protein” (priority 2017, dated 2020)
Where two headings read alike, the source gives them in different places.

Tests used:
[1] = molecular target: recombinant human Mcl-1 (residues 171-327) / Bim interaction (Homo sapiens (Human), UniProt Q07820); assay: biochemical; type: binding; conditions: read-out: Mcl-1 HTRF IC50
[2] = test system: human multiple myeloma cell line, OPM-2; assay: Cell viability assay (OPM-2 10 FBS), CellTiter-Glo; type: cell-based
Outline: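 Serially diluted test compounds are incubated 16 h with cells (3000/well) in RPMI 1640 supplemented with 10% FBS. Viability is then measured by luminescence and IC50 calculated by 4-parameter logistic fit.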

[3] = TR-FRET, Mcl-1(171-327) / biotin-Bim (51-76)
[4] = Homo sapiens, OPM-2, 16 h, read-out: OPM-2 10% FBS IC50 IP, OPM-2 cells, 10% FBS, 16 h, CellTiter-Glo
[5] = read-out: OPM-2 10% FBS IC50 IP, OPM-2 cells, 10% FBS, 16 h, CellTiter-Glo

recombinant human Mcl-1 (residues 171-327) / Bim interaction, sequence (Q07820 171-327): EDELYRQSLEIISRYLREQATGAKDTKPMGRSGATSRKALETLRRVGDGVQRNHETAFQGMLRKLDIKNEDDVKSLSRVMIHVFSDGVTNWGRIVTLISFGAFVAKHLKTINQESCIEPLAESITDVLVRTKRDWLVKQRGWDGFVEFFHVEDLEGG

CC[C@@]1(O)CCC[C@H](C)[C@@H](C)S(=O)(=O)NC(=O)c2ccc3c(c2)N(C[C@@H]2CC[C@H]21)C[C@@]1(CCCc2cc(Cl)ccc21)CO3 [Example 100079, (1S,3′R,6′R,7′R,11′S,12′R)-6-chloro-7′-ethyl-7′-hydroxy-11′,12′-dimethyl-3,4-dihydro-2H,15′H-spiro[naphthalene-1,22′-[20]oxa[13]thia[1,14]diazatetracyclo [14.7.2.0~3,6~.0~19,24~]pentacosa[16,18,24]trien]-15′-one 13′,13′-dioxide]
IC50 [1, 3]: 0.343 nM | IC50 [2, 4]: 713 nM

CCN(CC)C(=O)C[C@]1(O)/C=C/C[C@H](C)[C@@H](C)S(=O)(=O)NC(=O)c2ccc3c(c2)N(C[C@@H]2CC[C@H]21)C[C@@]1(CCCc2cc(Cl)ccc21)CO3 [Example 100083, 2-((1S,3′R,6′R,7′S,8′E,11′S,12′R)-6-chloro-7′-hydroxy-11′,12′-dimethyl-13′,13′-dioxido-15′-oxo-3,4-dihydro-2H-spiro[naphthalene-1,22′-[20]oxa[13]thia[1,14]diazatetracyclo [14.7.2.0~3,6~.0~19,24~]pentacosa[8,16,18,24]tetraen]-7′-yl)-N,N-diethylacetamide]
IC50 [1, 3]: 0.179 nM | IC50 [2, 4]: 123 nM

C[C@@H]1[C@@H](C)C/C=C/[C@@](O)(CC(=O)N2CCOCC2)[C@@H]2CC[C@H]2CN2C[C@@]3(CCCc4cc(Cl)ccc43)COc3ccc(cc32)C(=O)NS1(=O)=O [Example 100085, (1S,3′R,6′R,7′S,8′E,11′S,12′R)-6-chloro-7′-hydroxy-11′,12′-dimethyl-7′-(2-(4-morpholinyl)-2-oxoethyl)-3,4-dihydro-2H,15′H-spiro[naphthalene-1,22′-[20]oxa[13]thia[1,14]diazatetracyclo [14.7.2.0~3,6~.0~19,24~]pentacosa[8,16,18,24]tetraen]-15′-one 13′,13′-dioxide]
IC50 [1]: 0.245 nM | IC50 [2, 4]: 288 nM

C[C@@H]1[C@@H](C)CCC[C@@](O)(CC(=O)N2CCOCC2)[C@@H]2CC[C@H]2CN2C[C@@]3(CCCc4cc(Cl)ccc43)COc3ccc(cc32)C(=O)NS1(=O)=O [Example 100086, (1S,3′R,6′R,7′R,11′S,12′R)-6-chloro-7′-hydroxy-11′,12′-dimethyl-7′-(2-(4-morpholinyl)-2-oxoethyl)-3,4-dihydro-2H,15′H-spiro[naphthalene-1,22′-[20]oxa[13]thia[1,14]diazatetracyclo [14.7.2.0~3,6~.0~19,24~]pentacosa[16,18,24]trien]-15′-one 13′,13′-dioxide]
IC50 [1, 3]: 0.537 nM | IC50 [2, 4]: 390 nM

C[C@@H]1[C@@H](C)CCC[C@](O)(CCN(C)C)[C@@H]2CC[C@H]2CN2C[C@@]3(CCCc4cc(Cl)ccc43)COc3ccc(cc32)C(=O)NS1(=O)=O [Example 100088, (1S,3′R,6′R,7′S,11′S,12′R)-6-chloro-7′-(2-(dimethylamino)ethyl)-7′-hydroxy-11′,12′-dimethyl-3,4-dihydro-2H,15′H-spiro[naphthalene-1,22′-[20]oxa[13]thia[1,14]diazatetracyclo [14.7.2.0~3,6~.0~19,24~]pentacosa[16,18,24]trien]-15′-one 13′,13′-dioxide]
IC50 [1, 3]: 2.12 nM | IC50 [2, 4]: 1340 nM

C[C@@H]1[C@@H](C)CCC[C@@](O)(CC(=O)N2CCCCC2)[C@@H]2CC[C@H]2CN2C[C@@]3(CCCc4cc(Cl)ccc43)COc3ccc(cc32)C(=O)NS1(=O)=O [Example 100089, (1S,3′R,6′R,7′R,11′S,12′R)-6-chloro-7′-hydroxy-11′,12′-dimethyl-7′-(2-oxo-2-(1-piperidinyl)ethyl)-3,4-dihydro-2H,15′H-spiro[naphthalene-1,22′-[20]oxa[13]thia[1,14]diazatetracyclo [14.7.2.0~3,6~.0~19,24~]pentacosa[16,18,24]trien]-15′-one 13′,13′-dioxide]
IC50 [1, 3]: 0.348 nM | IC50 [2, 5]: 325 nM

C[C@@H]1[C@@H](C)CCC[C@@](O)(CC(=O)N2CCCCC2)[C@@H]2CC[C@H]2CN2C[C@@]3(CCCc4cc(Cl)ccc43)COc3ccc(cc32)C(=O)NS1(=O)=O [Example 100090, (1S,3′R,6′R,7′R,11′S,12′R)-6-chloro-7′-hydroxy-11′,12′-dimethyl-7′-(2-oxo-2-(1-piperidinyl)ethyl)-3,4-dihydro-2H,15′H-spiro[naphthalene-1,22′-[20]oxa[13]thia[1,14]diazatetracyclo [14.7.2.0~3,6~.0~19,24~]pentacosa[16,18,24]trien]-15′-one 13′,13′-dioxide]
IC50 [1, 3]: 0.795 nM | IC50 [2, 5]: 798 nM

C[C@@H]1[C@@H](C)CCC[C@@](O)(CCN2CCCCC2)[C@@H]2CC[C@H]2CN2C[C@@]3(CCCc4cc(Cl)ccc43)COc3ccc(cc32)C(=O)NS1(=O)=O [Example 100091, (1S,3′R,6′R,7′R,11′S,12′R)-6-chloro-7′-hydroxy-11′,12′-dimethyl-7′-(2-(1-piperidinyl)ethyl)-3,4-dihydro-2H,15′H-spiro[naphthalene-1,22′-[20]oxa[13]thia[1,14]diazatetracyclo [14.7.2.0~3,6~.0~19,24~]pentacosa[16,18,24]trien]-15′-one 13′,13′-dioxide]
IC50 [1, 3]: 1.2 nM | IC50 [2, 4]: 1350 nM

C[C@@H]1[C@@H](C)CCC[C@@](O)(CCN2CCCCC2)[C@@H]2CC[C@H]2CN2C[C@@]3(CCCc4cc(Cl)ccc43)COc3ccc(cc32)C(=O)NS1(=O)=O [Example 100092, (1S,3′R,6′R,7′R,11′S,12′R)-6-chloro-7′-hydroxy-11′,12′-dimethyl-7′-(2-(1-piperidinyl)ethyl)-3,4-dihydro-2H,15′H-spiro[naphthalene-1,22′-[20]oxa[13]thia[1,14]diazatetracyclo [14.7.2.0~3,6~.0~19,24~]pentacosa[16,18,24]trien]-15′-one 13′,13′-dioxide]
IC50 [1, 3]: 4.02 nM | IC50 [2, 5]: 2210 nM

C[C@@H]1[C@@H](C)CCC[C@@](O)(CCN2CC(F)(F)C2)[C@@H]2CC[C@H]2CN2C[C@@]3(CCCc4cc(Cl)ccc43)COc3ccc(cc32)C(=O)NS1(=O)=O [Example 100093, (1S,3′R,6′R,7′R,11′S,12′R)-6-chloro-7′-(2-(3,3-difluoro-1-azetidinyl)ethyl)-7′-hydroxy-11′,12′-dimethyl-3,4-dihydro-2H,15′H-spiro[naphthalene-1,22′-[20]oxa[13]thia[1,14]diazatetracyclo [14.7.2.0~3,6~.0~19,24~]pentacosa[16,18,24]trien]-15′-one 13′,13′-dioxide]
IC50 [1, 3]: 0.291 nM | IC50 [2, 5]: 554 nM

C[C@@H]1[C@@H](C)CCC[C@@](O)(CCN2CC(F)(F)C2)[C@@H]2CC[C@H]2CN2C[C@@]3(CCCc4cc(Cl)ccc43)COc3ccc(cc32)C(=O)NS1(=O)=O [Example 100094, (1S,3′R,6′R,7′R,11′S,12′R)-6-chloro-7′-(2-(3,3-difluoro-1-azetidinyl)ethyl)-7′-hydroxy-11′,12′-dimethyl-3,4-dihydro-2H,15′H-spiro[naphthalene-1,22′-[20]oxa[13]thia[1,14]diazatetracyclo [14.7.2.0~3,6~.0~19,24~]pentacosa[16,18,24]trien]-15′-one 13′,13′-dioxide]
IC50 [1, 3]: 3.83 nM | IC50 [2, 5]: 4380 nM

C[C@@H]1[C@@H](C)CCC[C@@](O)(CCN2CCOCC2)[C@@H]2CC[C@H]2CN2C[C@@]3(CCCc4cc(Cl)ccc43)COc3ccc(cc32)C(=O)NS1(=O)=O [Example 100095, (1S,3′R,6′R,7′R,11′S,12′R)-6-chloro-7′-hydroxy-11′,12′-dimethyl-7′-(2-(4-morpholinyl)ethyl)-3,4-dihydro-2H,15′H-spiro[naphthalene-1,22′-[20]oxa[13]thia[1,14]diazatetracyclo [14.7.2.0~3,6~.0~19,24~]pentacosa[16,18,24]trien]-15′-one 13′,13′-dioxide]
IC50 [1, 3]: 0.148 nM | IC50 [2, 5]: 113 nM

C[C@@H]1[C@@H](C)CCC[C@@](O)(CCN2CCOCC2)[C@@H]2CC[C@H]2CN2C[C@@]3(CCCc4cc(Cl)ccc43)COc3ccc(cc32)C(=O)NS1(=O)=O [Example 100096, (1S,3′R,6′R,7′R,11′S,12′R)-6-chloro-7′-hydroxy-11′,12′-dimethyl-7′-(2-(4-morpholinyl)ethyl)-3,4-dihydro-2H,15′H-spiro[naphthalene-1,22′-[20]oxa[13]thia[1,14]diazatetracyclo [14.7.2.0~3,6~.0~19,24~]pentacosa[16,18,24]trien]-15′-one 13′,13′-dioxide]
IC50 [1, 3]: 0.624 nM | IC50 [2, 5]: 517 nM

C[C@@H]1[C@@H](C)CCC[C@](O)(CC(=O)O)[C@@H]2CC[C@H]2CN2C[C@@]3(CCCc4cc(Cl)ccc43)COc3ccc(cc32)C(=O)NS1(=O)=O [Example 100097, ((1S,3′R,6′R,7′S,11′S,12′R)-6-chloro-7′-hydroxy-11′,12′-dimethyl-13′,13′-dioxido-15′-oxo-3,4-dihydro-2H-spiro[naphthalene-1,22′-[20]oxa[13]thia[1,14]diazatetracyclo [14.7.2.0~3,6~.0~19,24~]pentacosa[16,18,24]trien]-7′-yl)acetic acid]
IC50 [1, 3]: 0.081 nM | IC50 [2, 4]: 5230 nM

CNC(=O)C[C@]1(O)CCC[C@H](C)[C@@H](C)S(=O)(=O)NC(=O)c2ccc3c(c2)N(C[C@@H]2CC[C@H]21)C[C@@]1(CCCc2cc(Cl)ccc21)CO3 [Example 100098, 2-((1S,3′R,6′R,7′R,11′S,12′R)-6-chloro-7′-hydroxy-11′,12′-dimethyl-13′,13′-dioxido-15′-oxo-3,4-dihydro-2H-spiro[naphthalene-1,22′-[20]oxa[13]thia[1,14]diazatetracyclo [14.7.2.0~3,6~.0~19,24~]pentacosa[16,18,24]trien]-7′-yl)-N-methylacetamide]
IC50 [1, 3]: 0.231 nM | IC50 [2, 4]: 748 nM
